Patent US10590365B2, “Compounds for a controlled release of active molecules” (FIRMENICH SA, priority 2013, dated 2020)

Columns and labels:
[1] = test system: Staphylococcus warneri DSM 20316; test: Incubation of pro-perfume conjugates with skin bacteria; remaining conjugate by LC-MS; type: cell-based
Method: (§1) The liberation of perfuming alcohols from the present invention's compounds of formula (I) was tested in vitro during incubation with defined skin bacteria strains.
(§2) c) Bacterial solutions: Two underarm bacterial isolates, Propionibacterium acnes ATCC 6919 and Staphylococcus warneri DSM 20316 (identified by 16S rDNA sequencing by Deutsche Sammlung von Mikroorganismen and ZellKulturen DSMZ, Germany), were cultivated on SCH agar at 37° C. during 72 h in anaerobic conditions and on TSA at 37° C. during 24 h, respectively.
Similarly, one colony of S. warneri from the pure primary culture on TSA was inoculated on a new TSA and incubated for 24 h at 37° C. After incubation, the whole culture was dissociated by shaking in 20 ml of NaCl 0.9% then centrifuged 15 min at 5000 rpm, 4° C. The pellet was washed in NaCl 0.9% and concentrated two times in NaCl 0.9%.
(§3) A pro-perfume glucuronides mixture containing menthol glucuronide (6 mg/kg), phenethylol β-glucuronide (10.75 mg/kg) and raspberry ketone β-glucuronide (13 mg/kg) in water was incubated with either: • 500 μL of the previously described bacterial solution • 10 μL of commercial enzymes β-glucuronidase/arylsulfatase from Helix pomatia (RocheDiagnostic, Indianapolis, USA) and 490 μL of NaCl 0.9% as a positive control • 500 μl of NaCl 0.9% as a negative controlfor the incubation with bacteria.
(§4) Each solution was prepared in duplicate (in glass vials).
(§5) The vials were placed in a heating block at 37° C. under gentle stirring from 1 to 7 days depending on the bacteria solutions. At the end of the incubation time, vials were cooled down to room temperature, 150 μL was mixed with 50 μL of LC-MS solvent B, filtered through acrodisc and 1 μL was injected on LC-MS (peak areas considered were measured in SIM mode according to their respective molecular weights). Comparisons were made between glucuronides (HESI−) or glucosides (HESI+) areas in incubated solutions and glucuronides (HESI−) or glucosides (HESI+) areas in the blanks (fixed as 100%).

[2] = test system: Propionibacterium acnes ATCC 6919; test: Incubation of pro-perfume glucuronide mixture with skin bacteria; remaining conjugate by LC-MS; type: cell-based; conditions: After 5 days; for Glucuronide-conjugates remaining after incubation with Propionibacterium acnes (in percentage), Average: average of incubations 1-3; for Glucuronide-conjugates remaining after incubation with Propionibacterium acnes (in percentage): blank fixed as 100%
Method: as §1, §2
One isolated colony of P. acnes from the pure primary culture on SCH agar was inoculated on a new SCH agar and incubated at 37° C., 72 h in anaerobic conditions. After incubation, the whole culture was dissociated by shaking in 20 ml of NaCl 0.9% then centrifuged 10 min at 5000 rpm at room temperature. The pellet was washed in NaCl 0.9% and concentrated two times in NaCl 0.9%.
as §3, §4, §5

[3] = Table 2, After 1 day, incubation 1
[4] = Table 2, After 1 day, incubation 2
[5] = Table 3, After 1 day, incubation 1
[6] = Table 3, After 1 day, incubation 2
[7] = Table 3, After 5 day, incubation 1
[8] = Table 3, After 5 day, incubation 2

Row | Structure (SMILES) | Glucuronide-conjugates remaining after incubation with S. warneri (in percentage), Average ([1]; Table 2, After 1 day) [%] | Glucuronide-conjugates remaining after incubation with S. warneri (in percentage) [1, 3] [%] | Glucuronide-conjugates remaining after incubation with S. warneri (in percentage) [1, 4] [%] | Glucuronide-conjugates remaining after incubation with Propionibacterium acnes (in percentage), Average [2] [%] | Glucuronide-conjugates remaining after incubation with Propionibacterium acnes (in percentage) ([2]; incubation 1) [%] | Glucuronide-conjugates remaining after incubation with Propionibacterium acnes (in percentage) ([2]; incubation 2) [%] | Glucuronide-conjugates remaining after incubation with Propionibacterium acnes (in percentage) ([2]; incubation 3) [%] | Glucuronide-conjugates remaining after incubation with S. warneri (in percentage), Average ([1]; Table 3, After 1 day) [%] | Glucuronide-conjugates remaining after incubation with S. warneri (in percentage) [1, 5] [%] | Glucuronide-conjugates remaining after incubation with S. warneri (in percentage) [1, 6] [%] | Glucuronide-conjugates remaining after incubation with S. warneri (in percentage), Average ([1]; Table 3, After 5 day) [%] | Glucuronide-conjugates remaining after incubation with S. warneri (in percentage) [1, 7] [%] | Glucuronide-conjugates remaining after incubation with S. warneri (in percentage) [1, 8] [%]
1 | CC(=O)CCc1ccc(O[C@@H]2O[C@H](C(=O)O)[C@@H](O)[C@H](O)[C@H]2O)cc1 [(4-hydroxyphenyl)-2-butanone-β-D-glucopyranosiduronic acid] | 0 | 0 | 0 | 58 | 61 | 58 | 57 |  |  |  |  |  | 
2 | CC1CCC(C(C)C)C(O)C1 (centres unmarked) [menthol] |  |  |  |  |  |  |  | 74 | 72 | 77 | 34 | 36 | 31
3 | CC1CCC(C(C)C)C(OC2O[C@H](C(=O)O)[C@@H](O)[C@H](O)[C@H]2O)C1 (some centres unmarked) [p-menthan-3-ol, glucopyranosiduronic acid 1-menthyl] | 0 | 1 | 0 | 7 | 5 | 9 | 7 |  |  |  |  |  | 
4 | C=CCc1ccc(O[C@@H]2O[C@H](C(=O)O)[C@@H](O)[C@H](O)[C@H]2O)c(OC)c1 [β-D-glucopyranosiduronic acid 2-methoxy-4-(2-propen-1-yl)phenyl] |  |  |  |  |  |  |  | 100 | 130 | 120 | 0 | 0 | 0
5 | COc1cc(C=O)ccc1O[C@@H]1O[C@H](C(=O)O)[C@@H](O)[C@H](O)[C@H]1O [β-D-glucopyranosiduronic acid 4-formyl-2-methoxyphenyl] |  |  |  |  |  |  |  | 100 | 84 | 96 | 0 | 0 | 0
